In PMC10406941 (Scientific Reports, 2023):
Like-named read-outs stand apart in the source and are kept apart here.

Legend:
SARS-CoV-2 [1] = assay: Anti-SARS-CoV-2 activity, detection of viral genomes by RT-qPCR on infected cells; type: cell-based; details: for anti-SARS-CoV-2 activity in words: Vero E6 cells; for fold reduction in anti-SARS-CoV-2 activity: relative to PB28, Vero E6 cells
S1R [2] = molecular target: T1, S1R (Cavia porcellus, UniProt Q60492); details: cited from earlier work
T1 construct: [^3H]-( +)-Pentazocine on guinea pig brain according to the generally accepted protocol; from tissue; host or cells: guinea pig brain

S2R [3] = molecular target: T2, S2R (Rattus norvegicus, UniProt Q5U3Y7); details: [3H]-DTG, rat liver, masking with (+)-Pentazocine, cited from earlier work
T2 construct: [^3H]-DTG on rat liver masking with ( +)-Pentazocine according to the generally accepted protocol; from tissue; host or cells: rat liver
T2 sequence (Q5U3Y7 1-176): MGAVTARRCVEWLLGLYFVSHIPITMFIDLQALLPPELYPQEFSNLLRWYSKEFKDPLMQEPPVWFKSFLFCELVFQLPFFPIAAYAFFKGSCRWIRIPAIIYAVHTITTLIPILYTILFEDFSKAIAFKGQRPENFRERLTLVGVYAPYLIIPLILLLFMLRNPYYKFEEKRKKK

S1R [4] = molecular target: T1, S1R; assay: S1R radioligand binding assay, [3H]-(+)-Pentazocine on guinea pig brain; details: Table 1, compound 6 (no reference cited)
S2R [5] = molecular target: T2, S2R; assay: S2R radioligand binding assay, [3H]-DTG on rat liver masking with (+)-Pentazocine; details: Table 1, compound 6 (no reference cited)
SARS-CoV-2 [6] = details: read-out: IC90 anti-SARS-CoV-2 activity in vitro; cited from earlier work
[7] = Table 1, RT-qPCR of viral genomes, Vero E6 cells infected with SARS-CoV-2, one representative experiment of at least three
[8] = Table 1, [3H]-(+)-Pentazocine, guinea pig brain, mean of three experiments in duplicate, read-out: Ki nM S1R
[9] = Table 1, mean of three experiments in duplicate
[10] = Table 1, RT-qPCR of viral genomes, Vero E6 cells infected with SARS-CoV-2, one representative experiment of at least three, read-out: IC50 (μM) SARS-CoV-2
[11] = Table 3, RT-qPCR of viral genomes, Vero E6 cells infected with SARS-CoV-2, read-out: IC50 (μM) SARS-CoV-2
[12] = Table 3, [3H]-(+)-Pentazocine, guinea pig brain, read-out: Ki nM S1R
[13] = Table 4, RT-qPCR of viral genomes, Vero E6 cells infected with SARS-CoV-2
[14] = Table 4, [3H]-(+)-Pentazocine, guinea pig brain, read-out: Ki Nm S1R

T1 sequence (Q60492 whole entry): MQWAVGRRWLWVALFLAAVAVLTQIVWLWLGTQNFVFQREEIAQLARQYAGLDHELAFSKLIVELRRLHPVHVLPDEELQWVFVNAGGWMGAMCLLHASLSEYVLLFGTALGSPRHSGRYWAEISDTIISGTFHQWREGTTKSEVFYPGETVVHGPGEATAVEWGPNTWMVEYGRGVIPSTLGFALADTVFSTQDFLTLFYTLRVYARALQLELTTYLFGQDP

SMILES	anti-SARS-CoV-2 activity in words (SARS-CoV-2 [1])	Ki (S1R [2]; [8]) [nM]	Ki (S2R [3]; [9]) [nM]	IC50 (SARS-CoV-2 [1]; [10]) [µM]	also measured
COc1cccc2c1CCCC2N1CCN(C2CCCCC2)CC1 (racemic) [Compound 1]	loss of activity	0.4	7.9	–	IC50 (μM) SARS-CoV-2 (SARS-CoV-2 [1]; [7]): NOT ACTIVE
COc1cccc2c1CCCC2CN1CCN(C2CCCCC2)CC1 (racemic) [Compound 2]	–	0.31	16.4	5.9	fold reduction in anti-SARS-CoV-2 activity (SARS-CoV-2 [1]): 20 fold
COc1cccc2c1CCCC2CCN1CCN(C2CCCCC2)CC1 (racemic) [Compound 3]	–	1.57	21.1	12.6	fold reduction in anti-SARS-CoV-2 activity (SARS-CoV-2 [1]): 40 fold
COc1cccc2c1CCCC2CCCCN1CCN(C2CCCCC2)CC1 (racemic) [Compound 4]	–	–	3.58	0.32	–
COc1cccc2c1CCCC2CCCCCN1CCN(C2CCCCC2)CC1 (racemic) [Compound 5]	–	1.52	0.35	0.19	–
COc1cccc2c1CCCC2CCCCCCN1CCN(C2CCCCC2)CC1 (racemic) [Compound 6]	–	–	–	1.32	Ki (S1R [4]): 3.07 nM; Ki (S2R [5]): 103 nM; fold reduction in anti-SARS-CoV-2 activity (SARS-CoV-2 [1]): threefold less potent
c1ccc2c(c1)CCCC2CCCN1CCN(C2CCCCC2)CC1 (racemic) [Compound 7]	–	0.61	0.68	0.438	–
c1ccc2c(c1)CCCC2CCCCN1CCN(C2CCCCC2)CC1 (racemic) [Compound 8]	–	–	14.6	0.317	–
c1ccc2c(c1)CCCC2CCCCCN1CCN(C2CCCCC2)CC1 (racemic) [Compound 9]	–	1.45	7.85	0.19	–
COc1ccc2c(c1)CCCC2CCCN1CCN(C2CCCCC2)CC1 (racemic) [Compound 10]	–	0.36	5.42	0.47	Ki (S1R [2]; as quoted in the text of the docking section, read-out: Ki (S1R)): 0.38 nM
Oc1cccc2c1CCCC2CCCN1CCN(C2CCCCC2)CC1 (racemic) [Compound 15]	complete loss of antiviral activity	–	2.66	–	IC50 (μM) SARS-CoV-2 (SARS-CoV-2 [1]; [7]): NOT ACTIVE
Oc1ccc2c(c1)CCCC2CCCN1CCN(C2CCCCC2)CC1 (racemic) [Compound 16]	complete loss of antiviral activity	0.69	1.12	–	IC50 (μM) SARS-CoV-2 (SARS-CoV-2 [1]; [7]): NOT ACTIVE
COc1cccc2c1CCCC2CCCN1CCN(C)CC1 (racemic) [Compound 23]	–	–	–	–	IC50 (SARS-CoV-2 [1]; [11]): 5.78 µM; fold reduction in anti-SARS-CoV-2 activity (SARS-CoV-2 [1]): 20 fold; Ki (S1R [2]; [12]): 17.8 nM; Ki (S2R [3]; Table 3): 663 nM
CCCN1CCN(CCCC2CCCc3c(OC)cccc32)CC1 (racemic) [Compound 24]	–	–	–	–	IC50 (SARS-CoV-2 [1]; [11]): 2.26 µM; fold reduction in anti-SARS-CoV-2 activity (SARS-CoV-2 [1]): 8 fold; Ki (S1R [2]; [12]): 9.6 nM; Ki (S2R [3]; Table 3): 42.5 nM
CCC(CC)N1CCN(CCCC2CCCc3c(OC)cccc32)CC1 (racemic) [Compound 25]	no anti-SARS-CoV-2 activity	–	–	–	IC50 (μM) SARS-CoV-2 (SARS-CoV-2 [1]; Table 3, RT-qPCR of viral genomes, Vero E6 cells infected with SARS-CoV-2): NOT ACTIVE; Ki (S1R [2]; [12]): 12 nM; Ki (S2R [3]; Table 3): 12.7 nM
COc1cccc2c1CCC[C@H]2CCCN1CCN(C2CCCCC2)CC1 [( +)-S-PB28]	–	–	1.18	0.455	–
COc1cccc2c1CCC[C@@H]2CCCN1CCN(C2CCCCC2)CC1 [(-)-R-PB28]	–	–	0.49	0.309	–
c1ccc2c(CCCN3CCN(C4CCCCC4)CC3)cccc2c1 [Compound 11]	–	2.16	0.69	0.94	–
c1ccc2c(CCCCCN3CCN(C4CCCCC4)CC3)cccc2c1 [Compound 12]	–	2.4	0.57	0.52	–
COc1cccc2c(CCCN3CCN(C4CCCCC4)CC3)cccc12 [Compound 13]	–	–	9.24	0.306	–
COc1ccc2c(CCCN3CCN(C4CCCCC4)CC3)cccc2c1 [Compound 14]	complete loss of activity	3.16	9.02	–	IC50 (μM) SARS-CoV-2 (SARS-CoV-2 [1]; [7]): NOT ACTIVE
Oc1ccc2c(CCCN3CCN(C4CCCCC4)CC3)cccc2c1 [Compound 17]	complete loss of antiviral activity	6.78	26.4	–	IC50 (μM) SARS-CoV-2 (SARS-CoV-2 [1]; [7]): NOT ACTIVE
Oc1ccc2cccc(CCCN3CCN(C4CCCCC4)CC3)c2c1 [Compound 18]	complete loss of antiviral activity	5.48	11.8	–	IC50 (μM) SARS-CoV-2 (SARS-CoV-2 [1]; [7]): NOT ACTIVE
COc1cccc2c1CCCC2CCCN1CCN(C2CCCCC2)CC1 (centres unmarked) [PB28, 1-Cyclohexyl-4-[3-(5-methoxy-1,2,3,4-tetrahydronaphthalen-1-yl)propyl]piperazine, reference compound]	–	–	–	–	IC50 (SARS-CoV-2 [1]; Severe acute respiratory syndrome coronavirus 2, Vero C1008, read-out: IC50 (μM) SARS-CoV-2): 0.299 µM; IC90 (SARS-CoV-2 [6]): 280 nM
COc1ccc2c(c1)CCCC2CCCCN1CCC(C)CC1 (centres unmarked) [PB190, reference compound]	did not demonstrate any antiviral effect	–	–	–	IC50 (μM) SARS-CoV-2 (SARS-CoV-2 [1]; [13]): NOT ACTIVE; Ki (S1R [2]; [14]): 0.42 nM; Ki (S2R [3]; Table 4): 36.3 nM
COc1ccc2c(CCCCN3CCC(C)CC3)cccc2c1 [PB212, reference compound]	did not demonstrate any antiviral effect	–	–	–	IC50 (μM) SARS-CoV-2 (SARS-CoV-2 [1]; [13]): NOT ACTIVE; Ki (S1R [2]; [14]): 0.03 nM; Ki (S2R [3]; Table 4): 17.9 nM
